Assay results taken from patent US12723063B2, “GIPR-agonist compounds” (Eli Lilly and Company, priority 2019, dated 2026).
*1 amine or outer side, *2 acyl side, *3 side chain or, on linkers, in order; H or OH if unused. Where a SMILES comes first, the peptide text is derived from it. Side-chain parts run from the residue outwards. [ ]: non-standard residue; d: D form. The star is where a group is joined. C20 diacid = O=C(O)CCCCCCCCCCCCCCCCCCC(=O)*; αMePhe(2-F) = C[C@](N)(Cc1ccccc1F)C(=O)O; γGlu = O=C(O)[C@H](CCC(=O)[*:2])N[*:1]; αMeF = C[C@](N)(Cc1ccccc1)C(=O)O; 4Pal = N[C@@H](Cc1ccncc1)C(=O)O; αMeL = CC(C)C[C@](C)(N)C(=O)O; AEEA = NCCOCCOCC(=O)O; Aib = CC(C)(N)C(=O)O

Experiments:
Experiment in all cases: cAMP functional assay (HTRF) in HEK293 cells in presence of 0.1% casein
Format in all cases: cell-based
[1] = target: T1, human GLP-1 receptor (GLP-1R) (Homo sapiens, UniProt P43220); details: HEK293 cells expressing human GLP-1R, geometric mean, read-out: hGLP1R cAMP Rel EC50 nM (SEM, n)
T1 construct: expressed in transfected cells; host or cells: HEK293
T1 sequence (P43220 24-463): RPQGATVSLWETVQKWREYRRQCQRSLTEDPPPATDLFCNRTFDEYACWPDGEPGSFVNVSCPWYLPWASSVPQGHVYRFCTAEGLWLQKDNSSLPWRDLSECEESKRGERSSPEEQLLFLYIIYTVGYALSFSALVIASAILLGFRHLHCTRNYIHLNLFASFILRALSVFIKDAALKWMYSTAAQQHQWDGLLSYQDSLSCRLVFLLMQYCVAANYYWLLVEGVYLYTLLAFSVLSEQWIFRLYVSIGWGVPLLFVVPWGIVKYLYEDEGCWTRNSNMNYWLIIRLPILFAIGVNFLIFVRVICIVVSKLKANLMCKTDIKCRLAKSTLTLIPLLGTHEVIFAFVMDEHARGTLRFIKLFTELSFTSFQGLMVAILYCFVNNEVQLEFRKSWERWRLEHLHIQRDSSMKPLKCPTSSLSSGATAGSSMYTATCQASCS

[2] = target: T2, human glucagon receptor (GcgR) (Homo sapiens, UniProt P47871); details: HEK293 cells expressing human GcgR, geometric mean, read-out: hGcgR cAMP Rel EC50 nM (SEM, n)
T2 construct: expressed in transfected cells; host or cells: HEK293
T2 sequence (P47871 26-477): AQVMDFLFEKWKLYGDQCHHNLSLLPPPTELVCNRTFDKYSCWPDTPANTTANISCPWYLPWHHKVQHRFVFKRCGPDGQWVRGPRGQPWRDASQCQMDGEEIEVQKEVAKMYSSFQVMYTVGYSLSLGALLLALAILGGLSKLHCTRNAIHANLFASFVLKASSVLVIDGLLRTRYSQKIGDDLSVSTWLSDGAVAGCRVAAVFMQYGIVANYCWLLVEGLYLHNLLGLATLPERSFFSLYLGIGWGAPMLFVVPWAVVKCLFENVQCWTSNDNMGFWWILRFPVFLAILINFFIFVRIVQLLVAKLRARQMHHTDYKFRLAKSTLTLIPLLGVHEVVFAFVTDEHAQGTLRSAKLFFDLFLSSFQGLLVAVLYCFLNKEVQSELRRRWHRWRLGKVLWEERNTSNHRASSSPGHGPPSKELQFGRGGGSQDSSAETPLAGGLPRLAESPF

[3] = target: T3, human glucose-dependent insulinotropic peptide receptor (GIPR) (Homo sapiens, UniProt P48546); details: HEK293 cells expressing human GIPR, geometric mean, read-out: hGIPR cAMP Rel EC50 nM (SEM, n)
T3 construct: expressed in transfected cells; host or cells: HEK293
T3 sequence (P48546 22-466): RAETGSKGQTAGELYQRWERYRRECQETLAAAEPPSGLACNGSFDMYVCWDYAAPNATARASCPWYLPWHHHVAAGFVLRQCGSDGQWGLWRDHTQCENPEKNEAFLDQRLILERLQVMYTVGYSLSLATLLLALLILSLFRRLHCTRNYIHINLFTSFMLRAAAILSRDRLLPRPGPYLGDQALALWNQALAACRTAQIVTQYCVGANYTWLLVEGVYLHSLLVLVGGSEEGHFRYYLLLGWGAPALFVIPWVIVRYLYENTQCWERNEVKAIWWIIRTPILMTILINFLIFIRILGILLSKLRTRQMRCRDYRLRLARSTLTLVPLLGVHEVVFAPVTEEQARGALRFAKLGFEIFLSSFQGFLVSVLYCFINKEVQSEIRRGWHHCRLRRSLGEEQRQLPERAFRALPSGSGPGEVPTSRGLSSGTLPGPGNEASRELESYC

SMILES	EC50 [1] [nM]	EC50 [2] [nM]	EC50 [3] [nM]
CC[C@H](C)[C@H](NC(=O)[C@H](CO)NC(=O)[C@H](Cc1ccc(O)cc1)NC(=O)[C@H](CC(=O)O)NC(=O)[C@H](CO)NC(=O)[C@@H](NC(=O)[C@](C)(CC(C)C)NC(=O)[C@@H](NC(=O)CNC(=O)[C@H](CCC(=O)O)NC(=O)C(C)(C)NC(=O)[C@@H](N)Cc1ccc(O)cc1)[C@@H](C)O)[C@@H](C)CC)C(=O)N[C@@H](C)C(=O)N[C@@H](CC(C)C)C(=O)N[C@@H](CC(=O)O)C(=O)N[C@@H](CCCCN)C(=O)N[C@@H](CCCCNC(=O)COCCOCCNC(=O)COCCOCCNC(=O)CC[C@H](NC(=O)CCCCCCCCCCCCCCCCCCC(=O)O)C(=O)O)C(=O)N[C@@H](Cc1c[nH]cn1)C(=O)N[C@@H](CCC(N)=O)C(=O)NC(C)(C)C(=O)N[C@@H](CCC(=O)O)C(=O)N[C@@H](Cc1ccccc1)C(=O)N[C@H](C(=O)N[C@@H](CC(N)=O)C(=O)N[C@@H](Cc1ccc(O)cc1)C(=O)N[C@@H](CC(C)C)C(=O)N[C@@H](CC(C)C)C(=O)N[C@@H](C)C(=O)N[C@H](C(=O)NCC(=O)N1CCC[C@H]1C(=O)N[C@@H](CO)C(=O)N[C@@H](CO)C(=O)NCC(=O)N[C@@H](C)C(=O)N1CCC[C@H]1C(=O)N1CCC[C@H]1C(=O)N1CCC[C@H]1C(=O)N[C@@H](CO)C(N)=O)[C@@H](C)O)C(C)C [Example 35] (H-Y[Aib]EGT[αMeL]ISDYSIALDKK([AEEA-AEEA-γGlu-C20 diacid])HQ[Aib]EFVNYLLATGPSSGAPPPS-NH2)	> 5000	> 5000	0.0125
CC[C@H](C)[C@H](NC(=O)[C@H](CO)NC(=O)[C@H](Cc1ccc(O)cc1)NC(=O)[C@H](CC(=O)O)NC(=O)[C@H](CO)NC(=O)[C@@H](NC(=O)[C@](C)(Cc1ccccc1)NC(=O)[C@@H](NC(=O)CNC(=O)[C@H](CCC(=O)O)NC(=O)C(C)(C)NC(=O)[C@@H](N)Cc1ccc(O)cc1)[C@@H](C)O)[C@@H](C)CC)C(=O)N[C@@](C)(CC(C)C)C(=O)N[C@@H](CC(C)C)C(=O)N[C@@H](CC(=O)O)C(=O)N[C@@H](CCCCN)C(=O)N[C@@H](CCCCNC(=O)COCCOCCNC(=O)COCCOCCNC(=O)CC[C@H](NC(=O)CCCCCCCCCCCCCCCCCCC(=O)O)C(=O)O)C(=O)N[C@@H](Cc1c[nH]cn1)C(=O)N[C@@H](CCC(N)=O)C(=O)NC(C)(C)C(=O)N[C@@H](CCC(=O)O)C(=O)N[C@@H](Cc1ccccc1)C(=O)N[C@H](C(=O)N[C@@H](CCC(=O)O)C(=O)N[C@@H](Cc1ccncc1)C(=O)N[C@@H](CC(C)C)C(=O)N[C@@H](CC(C)C)C(=O)N[C@@H](C)C(=O)N[C@@H](CCC(N)=O)C(=O)NCC(=O)N1CCC[C@H]1C(=O)N[C@@H](CO)C(=O)N[C@@H](CO)C(=O)NCC(=O)N[C@@H](C)C(=O)N1CCC[C@H]1C(=O)N1CCC[C@H]1C(=O)N1CCC[C@H]1C(=O)N[C@@H](CO)C(N)=O)C(C)C [Example 60] (H-Y[Aib]EGT[αMeF]ISDYSI[αMeL]LDKK([AEEA-AEEA-γGlu-C20 diacid])HQ[Aib]EFVE[4Pal]LLAQGPSSGAPPPS-NH2)	71	> 5000	0.0369
CC[C@H](C)[C@H](NC(=O)[C@H](CO)NC(=O)[C@H](Cc1ccc(O)cc1)NC(=O)[C@H](CC(=O)O)NC(=O)[C@H](CO)NC(=O)[C@@H](NC(=O)[C@](C)(Cc1ccccc1F)NC(=O)[C@@H](NC(=O)CNC(=O)[C@H](CCC(=O)O)NC(=O)C(C)(C)NC(=O)[C@@H](N)Cc1ccc(O)cc1)[C@@H](C)O)[C@@H](C)CC)C(=O)N[C@@H](C)C(=O)N[C@@H](CC(C)C)C(=O)N[C@@H](CC(=O)O)C(=O)N[C@@H](CCCCN)C(=O)N[C@@H](CCCCNC(=O)COCCOCCNC(=O)COCCOCCNC(=O)CC[C@H](NC(=O)CCCCCCCCCCCCCCCCCCC(=O)O)C(=O)O)C(=O)N[C@@H](Cc1c[nH]cn1)C(=O)N[C@@H](CCC(N)=O)C(=O)NC(C)(C)C(=O)N[C@@H](CC(=O)O)C(=O)N[C@@H](Cc1ccccc1)C(=O)N[C@H](C(=O)N[C@@H](CCC(=O)O)C(=O)N[C@@H](Cc1c[nH]c2ccccc12)C(=O)N[C@@H](CC(C)C)C(=O)N[C@@H](CC(C)C)C(=O)N[C@@H](CCC(=O)O)C(=O)N[C@H](C(=O)NCC(=O)N1CCC[C@H]1C(=O)N[C@@H](CO)C(=O)N[C@@H](CO)C(=O)NCC(=O)N[C@@H](C)C(=O)N1CCC[C@H]1C(=O)N1CCC[C@H]1C(=O)N1CCC[C@H]1C(=O)N[C@@H](CO)C(N)=O)[C@@H](C)O)C(C)C [Example 40] (H-Y[Aib]EGT[αMePhe(2-F)]ISDYSIALDKK([AEEA-AEEA-γGlu-C20 diacid])HQ[Aib]DFVEWLLETGPSSGAPPPS-NH2)	2330	> 5000	0.033
CC[C@H](C)[C@H](NC(=O)[C@H](CC(C)C)NC(=O)[C@@H](NC(=O)CNC(=O)[C@H](CCC(=O)O)NC(=O)C(C)(C)NC(=O)[C@@H](N)Cc1ccc(O)cc1)[C@@H](C)O)C(=O)N[C@@H](CO)C(=O)N[C@@H](CC(=O)O)C(=O)N[C@@H](Cc1ccc(O)cc1)C(=O)N[C@@H](CO)C(=O)N[C@H](C(=O)N[C@@](C)(CC(C)C)C(=O)N[C@@H](CC(C)C)C(=O)N[C@@H](CC(=O)O)C(=O)N[C@@H](CCCCN)C(=O)N[C@@H](CCCCNC(=O)COCCOCCNC(=O)COCCOCCNC(=O)CC[C@H](NC(=O)CCCCCCCCCCCCCCCCCCC(=O)O)C(=O)O)C(=O)N[C@@H](Cc1c[nH]cn1)C(=O)N[C@@H](CCC(N)=O)C(=O)NC(C)(C)C(=O)N[C@@H](CCC(=O)O)C(=O)N[C@@H](Cc1ccccc1)C(=O)N[C@H](C(=O)N[C@@H](CCC(=O)O)C(=O)N[C@@H](Cc1ccc(O)cc1)C(=O)N[C@@H](CC(C)C)C(=O)N[C@@H](CC(C)C)C(=O)N[C@@H](CCC(=O)O)C(=O)N[C@H](C(=O)NCC(=O)N1CCC[C@H]1C(=O)N[C@@H](CO)C(=O)N[C@@H](CO)C(=O)NCC(=O)N[C@@H](C)C(=O)N1CCC[C@H]1C(=O)N1CCC[C@H]1C(=O)N1CCC[C@H]1C(=O)N[C@@H](CO)C(N)=O)[C@@H](C)O)C(C)C)[C@@H](C)CC [Example 72] (H-Y[Aib]EGTLISDYSI[αMeL]LDKK([AEEA-AEEA-γGlu-C20 diacid])HQ[Aib]EFVEYLLETGPSSGAPPPS-NH2)	> 5000	> 5000	0.0182
CC[C@H](C)[C@H](NC(=O)[C@H](CO)NC(=O)[C@H](Cc1ccc(O)cc1)NC(=O)[C@H](CC(=O)O)NC(=O)[C@H](CO)NC(=O)[C@@H](NC(=O)[C@](C)(Cc1ccccc1)NC(=O)[C@@H](NC(=O)CNC(=O)[C@H](CCC(=O)O)NC(=O)C(C)(C)NC(=O)[C@@H](N)Cc1ccc(O)cc1)[C@@H](C)O)[C@@H](C)CC)C(=O)N[C@@H](C)C(=O)N[C@@H](CC(C)C)C(=O)N[C@@H](CC(=O)O)C(=O)N[C@@H](CCCCN)C(=O)N[C@@H](CCCCNC(=O)COCCOCCNC(=O)COCCOCCNC(=O)CC[C@H](NC(=O)CCCCCCCCCCCCCCCCCCC(=O)O)C(=O)O)C(=O)N[C@@H](Cc1c[nH]cn1)C(=O)N[C@@H](CCC(N)=O)C(=O)NC(C)(C)C(=O)N[C@@H](CC(=O)O)C(=O)N[C@@H](Cc1ccccc1)C(=O)N[C@H](C(=O)N[C@@H](CCC(=O)O)C(=O)N[C@@H](Cc1ccncc1)C(=O)N[C@@H](CC(C)C)C(=O)N[C@@H](CC(C)C)C(=O)N[C@@H](CCC(=O)O)C(=O)NCC(=O)NCC(=O)N1CCC[C@H]1C(=O)N[C@@H](CO)C(=O)N[C@@H](CO)C(=O)NCC(=O)N[C@@H](C)C(=O)N1CCC[C@H]1C(=O)N1CCC[C@H]1C(=O)N1CCC[C@H]1C(=O)N[C@@H](CO)C(N)=O)C(C)C [Example 44] (H-Y[Aib]EGT[αMeF]ISDYSIALDKK([AEEA-AEEA-γGlu-C20 diacid])HQ[Aib]DFVE[4Pal]LLEGGPSSGAPPPS-NH2)	1180	> 5000	0.0084
CC[C@H](C)[C@H](NC(=O)[C@H](Cc1ccccc1)NC(=O)[C@@H](NC(=O)CNC(=O)[C@H](CCC(=O)O)NC(=O)C(C)(C)NC(=O)[C@@H](N)Cc1ccc(O)cc1)[C@@H](C)O)C(=O)N[C@@H](CO)C(=O)N[C@@H](CC(=O)O)C(=O)N[C@@H](Cc1ccc(O)cc1)C(=O)N[C@@H](CO)C(=O)N[C@H](C(=O)N[C@@](C)(CC(C)C)C(=O)N[C@@H](CC(C)C)C(=O)N[C@@H](CC(=O)O)C(=O)N[C@@H](CCCCN)C(=O)N[C@@H](CCCCNC(=O)COCCOCCNC(=O)COCCOCCNC(=O)CC[C@H](NC(=O)CCCCCCCCCCCCCCCCCCC(=O)O)C(=O)O)C(=O)N[C@@H](Cc1c[nH]cn1)C(=O)N[C@@H](CCC(N)=O)C(=O)NC(C)(C)C(=O)N[C@@H](CC(=O)O)C(=O)N[C@@H](Cc1ccccc1)C(=O)N[C@H](C(=O)N[C@@H](CCC(=O)O)C(=O)N[C@@H](Cc1ccc(O)cc1)C(=O)N[C@@H](CC(C)C)C(=O)N[C@@H](CC(C)C)C(=O)N[C@@H](CCC(=O)O)C(=O)N[C@@H](C)C(=O)NCC(=O)N1CCC[C@H]1C(=O)N[C@@H](CO)C(=O)N[C@@H](CO)C(=O)NCC(=O)N[C@@H](C)C(=O)N1CCC[C@H]1C(=O)N1CCC[C@H]1C(=O)N1CCC[C@H]1C(=O)N[C@@H](CO)C(N)=O)C(C)C)[C@@H](C)CC [Example 68] (H-Y[Aib]EGTFISDYSI[αMeL]LDKK([AEEA-AEEA-γGlu-C20 diacid])HQ[Aib]DFVEYLLEAGPSSGAPPPS-NH2)	> 5000	3030	0.0768
